From paper PMC6225165, “Design and Synthesis of Novel Dehydroepiandrosterone Analogues as Potent Antiproliferative Agents” (Molecules : A Journal of Synthetic Chemistry and Natural …, 2018)

Legend:
Hela = assay: MTT antiproliferative assay, Hela; assay type: cell-based, human; settings: for inhibition at 100 µM / % Growth Inhibition at 100 μM Hela / IC50: 48 h, MTT; for inhibition at 100 µM: read-out: % Growth Inhibition at 100 μM Hela; for Selectivity Index Hela: IC50 on normal cells (L02)/IC50 on tumour cells
Experimental: (§1) The antiproliferative activity of the title compounds against the panel of six different human cancer cell lines, viz. lung (A549), cervix (HeLa), liver (HepG-2), liver (BEL7402), colorectal (HCT116), and breast (MCF-7) cell lines, was evaluated using a standard MTT-based colorimetric assay. All cell lines were obtained from the Key Laboratory of Natural Resources and Functional Molecules of the Changbai Mountain (Yanbian University) and maintained in Dulbecco’s modified Eagle’s medium (DMEM) and RPMI Media 1640 (RPMI1640), supplemented with 10% foetal bovine serum (FBS) at 37 °C in a humidified atmosphere containing 5% CO2.
(§2) Cells were plated in 96-well plates at appropriate densities to ensure exponential growth throughout the experimental period (9 × 10^3 cells per well), and then allowed to adhere for 24 h. Cells were then treated for 48 h with each compound. After 48 h of incubation, 10 μL of MTT solution were added to each well to a final concentration of 2 mg·mL^−1. Plates were then incubated for a further 4 h. After incubation, the MTT solution was removed and 150 μL of DMSO were added to each well for coloration. The plates were shaken vigorously for 10 min at room temperature to ensure complete solubilisation. The optometric density (OD) was read on a microplate reader (EL × 800, BioTek, Highland Park, Winooski, VT, USA) at 492 nm, and the data were subsequently analysed. The percentage of cell growth inhibition was calculated from the following equation:Inhibitory rate (%) = [1 − (ODtreated − ODblank)/(ODcontrol − ODblank)] × 100.
(§3) To obtain the antiproliferative activity of compounds 2a–2w, the compounds were selected in the same way with four serial concentrations (1, 10, 50 and 100 μM) of those compounds. The optometric density (OD) reading was then used to calculate the IC50.

[1] = test system: human normal liver (L02) cells; assay: MTT assay on normal cell line L02; assay type: cell-based; settings: 48 h, MTT; for inhibition at 100 µM / % Growth Inhibition at 100 μM L02: normal cells; for inhibition at 100 µM: read-out: % Growth Inhibition at 100 μM L02; for IC50: normal cell line
MCF-7 = assay: MTT antiproliferative assay, MCF-7; assay type: cell-based, human; settings: for inhibition at 100 µM / % Growth Inhibition at 100 μM MCF-7 / IC50: 48 h, MTT; for inhibition at 100 µM: read-out: % Growth Inhibition at 100 μM MCF-7
Experimental: as §1, §2, §3

HCT116 = assay: MTT antiproliferative assay, HCT116; assay type: cell-based, human; settings: for inhibition at 100 µM / % Growth Inhibition at 100 μM HCT116 / IC50: 48 h, MTT; for inhibition at 100 µM: read-out: % Growth Inhibition at 100 μM HCT116; for Selectivity Index HCT116: IC50 on normal cells (L02)/IC50 on tumour cells
Experimental: as §1, §2, §3

BEL7402 = assay: MTT antiproliferative assay, BEL7402; assay type: cell-based, human; settings: for inhibition at 100 µM / % Growth Inhibition at 100 μM BEL7402 / IC50: 48 h, MTT; for inhibition at 100 µM: read-out: % Growth Inhibition at 100 μM BEL7402; for Selectivity Index BEL7402: IC50 on normal cells (L02)/IC50 on tumour cells
Experimental: as §1, §2, §3

HepG-2 = assay: MTT antiproliferative assay, HepG-2; assay type: cell-based, human; settings: for inhibition at 100 µM / % Growth Inhibition at 100 μM HepG-2 / IC50: 48 h, MTT; for inhibition at 100 µM: read-out: % Growth Inhibition at 100 μM HepG-2; for Selectivity Index HepG-2: IC50 on normal cells (L02)/IC50 on tumour cells
Experimental: as §1, §2, §3

A549 = assay: MTT antiproliferative assay, A549; assay type: cell-based, human; settings: for inhibition at 100 µM / % Growth Inhibition at 100 μM A549 / IC50: 48 h, MTT; for inhibition at 100 µM: read-out: % Growth Inhibition at 100 μM A549; for Selectivity Index A549: IC50 on normal cells (L02)/IC50 on tumour cells
Experimental: as §1, §2, §3

Row | Structure (SMILES) | inhibition at 100 µM (Hela; Homo sapiens) | inhibition at 100 µM ([1]; Homo sapiens, L02) | inhibition at 100 µM (MCF-7; Homo sapiens, MCF7) | inhibition at 100 µM (HCT116; Homo sapiens, HCT-116) | inhibition at 100 µM (BEL7402; Homo sapiens, Bel-7402) | inhibition at 100 µM (HepG-2; Homo sapiens, HepG2) | inhibition at 100 µM (A549; Homo sapiens, A549) | % Growth Inhibition at 100 μM Hela (Hela) | % Growth Inhibition at 100 μM L02 [1] | % Growth Inhibition at 100 μM MCF-7 (MCF-7) | % Growth Inhibition at 100 μM HCT116 (HCT116) | % Growth Inhibition at 100 μM BEL7402 (BEL7402) | % Growth Inhibition at 100 μM HepG-2 (HepG-2) | % Growth Inhibition at 100 μM A549 (A549) | IC50 (MCF-7; Homo sapiens, MCF7) | IC50 (HCT116; Homo sapiens, HCT-116) | IC50 (BEL7402; Homo sapiens, Bel-7402) | IC50 (HepG-2; Homo sapiens, HepG2) | further results
1 | C[C@]12CC[C@H](O)CC1=CC[C@@H]1[C@@H]2CC[C@]2(C)C(=O)CC[C@@H]12 [DHEA, Dehydroepiandrosterone] | 15.7% | 44.6% | 17.1% | 47.3% | 46.5% | 10.9% | 24.8% | – | – | – | – | – | – | – | – | – | – | – | –
2 | CC12CCC3C(CC=C4CC(O)CCC43C)C1C/C(=C\c1cn(-c3ccc(Cl)c(Cl)c3)nn1)C2=O (stereo not shown) [Compound 2h, (E)-16-((1-(3,4-dichlorophenyl)-1H-1,2,3-triazol-4-yl)methylene)-3-hydroxy-10,13-dimethyl-1,3,4,7,8,9,10,11,12,13,15,16-dodecahydro-2H-cyclopenta[a]phenan-thren-17(14H)-one] | – | – | – | – | – | – | – | 68.7% | 67.9% | 80.0% | 74.4% | 70.1% | 48.2% | 70.7% | – | – | – | – | IC50 (Hela): 15.1 µM; IC50 [1]: 26.4 µM; IC50 (MCF-7): 14.9 µM; IC50 (HCT116): 11.9 µM; IC50 (BEL7402): 16 µM; IC50 (HepG-2): > 100 µM; IC50 (A549): 17.5 µM
3 | COc1ccc(-n2cc(/C=C3\CC4C5CC=C6CC(O)CCC6(C)C5CCC4(C)C3=O)nn2)cc1OC (stereo not shown) [Compound 2t, (E)-16-((1-(3,4-dimethoxyphenyl)-1H-1,2,3-triazol-4-yl)methylene)-3-hydroxy-10,13-dimethyl-1,3,4,7,8,9,10,11,12,13,15,16-dodecahydro-2H-cyclopenta[a]phenan-thren-17(14H)-one] | – | – | – | – | – | – | – | NA (NA: antiproliferative activity <5%) | 9.4% | NA (NA: antiproliferative activity <5%) | NA (NA: antiproliferative activity <5%) | NA (NA: antiproliferative activity <5%) | NA (NA: antiproliferative activity <5%) | NA (NA: antiproliferative activity <5%) | – | – | – | – | –
4 | CC12CCC3C(CC=C4CC(O)CCC43C)C1C/C(=C\c1cn(-c3ccc(Br)cc3)nn1)C2=O (stereo not shown) [Compound 2k, (E)-16-((1-(4-bromophenyl)-1H-1,2,3-triazol-4-yl)methylene)-3-hydroxy-10,13-di-methyl-1,3,4,7,8,9,10,11,12,13,15,16-dodecahydro-2H-cyclopenta[a]phenan-thren-17(14H)-one] | – | – | – | – | – | – | – | 30.7% | 11.1% | 45.5% | NA (NA: antiproliferative activity <5%) | NA (NA: antiproliferative activity <5%) | 66.4% | 47.8% | – | – | – | – | IC50 (Hela): > 100 µM; IC50 [1]: > 100 µM; IC50 (MCF-7): > 100 µM; IC50 (HCT116): > 100 µM; IC50 (BEL7402): > 100 µM; IC50 (HepG-2): 37.1 µM; IC50 (A549): > 100 µM
5 | CC12CCC3C(CC=C4CC(O)CCC43C)C1C/C(=C\c1cn(-c3cccc(F)c3)nn1)C2=O (stereo not shown) [Compound 2c, (E)-16-((1-(3-fluorophenyl)-1H-1,2,3-triazol-4-yl)methylene)-3-hydroxy-10,13-dimethyl-1,3,4,7,8,9,10,11,12,13,15,16-dodecahydro-2H-cyclopenta[a]phenanthren-17(14H)-one] | 55.2% | 79.3% | 31.2% | 78.3% | 66.7% | 78.8% | 60.5% | – | – | – | – | – | – | – | > 100 µM | 26.3 µM | 68.9 µM | 11.1 µM | IC50 (Hela; Homo sapiens, HeLa): 83.5 µM; Selectivity Index Hela (Hela): 0.99; IC50 ([1]; Homo sapiens, L02): 83.4 µM; Selectivity Index HCT116 (HCT116): 3.17; Selectivity Index BEL7402 (BEL7402): 1.21; Selectivity Index HepG-2 (HepG-2): 7.53; IC50 (A549; Homo sapiens, A549): 51.6 µM; Selectivity Index A549 (A549): 1.61
6 | Cc1cccc(-n2cc(/C=C3\CC4C5CC=C6CC(O)CCC6(C)C5CCC4(C)C3=O)nn2)c1 (stereo not shown) [Compound 2o, (E)-3-hydroxy-10,13-dimethyl-16-((1-m-tolyl-1H-1,2,3-triazol-4-yl)methylene)-1,3,4,7,8,9,10,11,12,13,15,16-dodecahydro-2H-cyclopenta[a]phenanthren-17(14H)-one] | 12.7% | 40.1% | 11.2% | 40.9% | 30.5% | 12.8% | < 5% | – | – | – | – | – | – | – | – | – | – | – | –
7 | CC12CCC3C(CC=C4CC(O)CCC43C)C1C/C(=C\c1cn(-c3ccccc3F)nn1)C2=O (stereo not shown) [Compound 2b, (E)-16-((1-(2-fluorophenyl)-1H-1,2,3-triazol-4-yl)methylene)-3-hydroxy-10,13-dimethyl-1,3,4,7,8,9,10,11,12,13,15,16-dodecahydro-2H-cyclopenta[a]phenan-thren-17(14H)-one] | – | – | – | – | – | – | – | NA (NA: antiproliferative activity <5%) | NA (NA: antiproliferative activity <5%) | NA (NA: antiproliferative activity <5%) | NA (NA: antiproliferative activity <5%) | NA (NA: antiproliferative activity <5%) | NA (NA: antiproliferative activity <5%) | NA (NA: antiproliferative activity <5%) | – | – | – | – | –
8 | CC12CCC3C(CC=C4CC(O)CCC43C)C1C/C(=C\c1cn(-c3ccc(F)cc3)nn1)C2=O (stereo not shown) [Compound 2d, (E)-16-((1-(4-fluorophenyl)-1H-1,2,3-triazol-4-yl)methylene)-3-hydroxy-10,13-dimethyl-1,3,4,7,8,9,10,11,12,13,15,16-dodecahydro-2H-cyclopenta[a]phenanthren-17(14H)-one] | 78.9% | 80.3% | 83% | 84.9% | 60.4% | 65.6% | 68.8% | – | – | – | – | – | – | – | 17.8 µM | 33.2 µM | 40.4 µM | 36.2 µM | IC50 (Hela; Homo sapiens, HeLa): 13.2 µM; Selectivity Index Hela (Hela): 2.10; IC50 ([1]; Homo sapiens, L02): 27.8 µM; Selectivity Index MCF-7 (MCF-7; IC50 on normal cells (L02)/IC50 on tumour cells): 1.56; Selectivity Index HCT116 (HCT116): 0.83; Selectivity Index BEL7402 (BEL7402): 0.69; Selectivity Index HepG-2 (HepG-2): 0.77; IC50 (A549; Homo sapiens, A549): 15.8 µM; Selectivity Index A549 (A549): 1.76
9 | CC12CCC3C(CC=C4CC(O)CCC43C)C1C/C(=C\c1cn(-c3ccccc3Br)nn1)C2=O (stereo not shown) [Compound 2i, (E)-16-((1-(2-bromophenyl)-1H-1,2,3-triazol-4-yl)methylene)-3-hydroxy-10,13-dimethyl-1,3,4,7,8,9,10,11,12,13,15,16-dodecahydro-2H-cyclopenta[a]phenan-thren-17(14H)-one] | – | – | – | – | – | – | – | 17.0% | NA (NA: antiproliferative activity <5%) | NA (NA: antiproliferative activity <5%) | 20.2% | NA (NA: antiproliferative activity <5%) | NA (NA: antiproliferative activity <5%) | NA (NA: antiproliferative activity <5%) | – | – | – | – | –
10 | O=c1[nH]cc(F)c(=O)[nH]1 [Compound 5-FU, 5-fluorouracil, reference compound] | – | – | – | – | – | – | – | – | – | – | – | – | – | – | 28.1 µM | 24.8 µM | 21.3 µM | 10.6 µM | –
